These are literature values, as cited in patent US20230405125A1, “TREATMENT OF RECURRENT GIOBLASTOMA WITH PERILLYL ALCOHOL” (NeOnc Technologies, Inc., priority 2020, published 2023).

In series [1] the test system is patients with recurrent malignant gliomas.
Series [2] relates to patients with different solid tumors. The note with it: oral POH.
In series [3] the target is farnesyl-protein transferase (FPT) (Homo sapiens, UniProt P49354+P49356).
[4] abbreviates: Reardon et al. (CheckMate 143) 2020.

“Also recorded” adds a separate entry of the source. Like-named read-outs stand apart in the source and are kept apart here.

Turning to `CCOP(=O)(OCC)C(C)NC(=O)N(CCCl)N=O` (stereo not drawn) [Fotemustine], in the series on recurrent GBM patients (human, in vivo), the OS-6 is 73%, the OS-9 is on record as 47%, the OS-12 is reported as 40% and the “median OS” value was 8.7 months.

Take `O=NN(CCCl)C(=O)NC1CCCCC1` [Lomustine]: in the series on recurrent GBM patients (Batchelor et al. 2013), the OS-6 is 70%, the OS-9 is on record as 52%, the OS-12 is 41% and the “median OS” value was 9.8 months.

As for `C=C(C)[C@@H]1CC=C(CO)CC1` [POH], the “six month progression free survival rate” value in series [1] (intranasal commercial grade POH with solvent cocktail, 150 patients) is on record as 50%. Further, the radiographic response entry in series [1] (intranasal commercial-grade POH) is “Radiographic regression”. Further, in series [1] (intranasal commercial-grade POH, four times daily), the “tolerability / adverse effects” value is “minimal side effect; also recorded: good tolerance; also recorded: no severe adverse effects”. For the same compound, in series [2], the anti-cancer efficacy entry is reported as “limited”. Further, the tolerability entry is recorded as “Gastrointestinal toxicity proved dose-limiting” in series [2] and “poorly tolerated” in series [2] (listed as perillyl alcohol). In addition, the “effect on FPT enzymatic activity” value in series [3] was “inhibit”.

In the case of “Bevacizumab: humanized monoclonal antibody against VEGF (vascular endothelial growth factor)”, in the series on recurrent GBM patients (Field et al. (CABARET) 2015), the OS-6 is on record as 61%, the OS-9 is listed as 39%, the OS-12 is 24% and the “median OS” value is given as 7.5 months. For the same compound, in the series on recurrent GBM patients (Heiland et al. 2016), the OS-6 is 18%, the OS-12 is on record as 10% and the “median OS” value is reported as 4.1 months. Also, in the series with recurrent GBM patients (Taal et al. (BELOB) 2014), the OS-6 is recorded as 64%, the OS-9 was 38%, the OS-12 is given as 26% and the “median OS” value is 8.0 months.

For the compound “Nivolumab: fully human monoclonal antibody targeting the programmed death-1 (PD-1) immune checkpoint receptor”, in the series on recurrent GBM patients (setting [4]), the OS-6 is 72%, the OS-9 is 52%, the OS-12 was 42% and the “median OS” value is given as 9.8 months.
